In ChEMBL document CHEMBL6120986, “In silico inspired design of urea noscapine congeners as anticancer agents: Chemical synthesis and experimental evaluation using breast cancer cells and a xenograft mouse model” (Eur J Med Chem, 2025):

Columns and labels:
MCF7 = assay: Antiproliferative activity against human MCF7 cells assessed as inhibition of cell proliferation incubated for 72 hrs by SRB assay; type: functional, cell-based; conditions: MCF7, 72 h
MDA-MB-231 = assay: Antiproliferative activity against human MDA-MB-231 cells assessed as inhibition of cell proliferation incubated for 72 hrs by SRB assay; type: functional, cell-based; conditions: MDA-MB-231, 72 h
[1] = Cytotoxicty against HEK cells incubated for 72 hrs by SRB assay; type: toxicity, cell-based; conditions: human

## COc1ccc2c(c1OC)C(=O)O[C@@H]2[C@H]1c2c(c(NC(=O)Nc3cccc(C(C)=O)c3)c3c(c2OC)OCO3)CCN1C
MCF7
  IC50: 29.5 µM
MDA-MB-231
  IC50: 33.2 µM
[1]
  IC50 at 72 h: 306 µM

## COc1ccc2c(c1OC)C(=O)O[C@@H]2[C@H]1c2c(c(NC(=O)Nc3cccc(F)c3)c3c(c2OC)OCO3)CCN1C
MCF7
  IC50: 37.9 µM
MDA-MB-231
  IC50: 48.5 µM
[1]
  IC50 at 72 h: 292 µM

## COc1ccc2c(c1OC)C(=O)O[C@@H]2[C@H]1c2c(c(NC(=O)Nc3c(Cl)cc(Cl)cc3Cl)c3c(c2OC)OCO3)CCN1C
MCF7
  IC50: 27.7 µM
MDA-MB-231
  IC50: 35.7 µM
[1]
  IC50 at 72 h: 293 µM

## COc1ccc(NC(=O)Nc2c3c(c(OC)c4c2OCO4)[C@H]([C@H]2OC(=O)c4c2ccc(OC)c4OC)N(C)CC3)c(OC)c1
MCF7
  IC50: 17.5 µM
MDA-MB-231
  IC50: 20.4 µM
[1]
  IC50 at 72 h: 306 µM

## COc1ccc2c(c1OC)C(=O)O[C@@H]2[C@H]1c2c(c(NC(=O)Nc3ccc(F)c(Cl)c3)c3c(c2OC)OCO3)CCN1C
MCF7
  IC50: 32.7 µM
MDA-MB-231
  IC50: 35.2 µM
[1]
  IC50 at 72 h: 285 µM
